These results are taken from patent US7659312B2, “Inhibitors of Aquaporin 4, methods and uses thereof” (Niigata University, priority 2006, dated 2010).

Experiment [1] deals with T1, human aquaporin-4 M23 isoform (hAQP4b) (Homo sapiens, UniProt P55087).
T1 construct: Full-length cRNA was subcloned into pSP35T expression vector for Xenopus oocytes; expressed in transfected cells; host or cells: Xenopus laevis oocytes injected with hAQP4b cRNA (pSP35T vector)
The experiment can be described thus: Inhibition of AQP4 mediated hypoosmotic swelling of Xenopus laevis oocytes expressing hAQP4b. The format is cell-based. Details: IAmax: unit not given here. The conditions noted are these: for IAmax: value in parentheses after IC50, 0.01≦[X]≦100 μM.

Experiment [2] concerns the target T1, human aquaporin-4 M23 isoform (hAQP4b). Described as above. The format is cell-based. The conditions noted are these: for inhibition at 20 µM / % Inh (percent inhibition and cumulated error): Table 3, [X]=20 μM, P<0.05; for inhibition at 20 µM: read-out: % Inh (percent inhibition and cumulated error). On the procedure:
Compounds studied in vitro were purchased from Sigma-Aldrich, Tokyo Kasei, Wako or Scientific Exchange, and were used without further purification. […] Compound samples were freshly dissolved into DMSO (Sigma, Hibri-Max) and diluted into RO deionized water (Milipore, Ultra-Q) prior to use. Other reagents were purchased from Sigma and Wako and were used without modification. Modified Barth's Medium (MBS) and isolation buffer were prepared using autoclaved, doubly distilled water. MBS was used for up to one week after its preparation. […] Isolation buffer was prepared to contain NaCl (108 mM), KCl (2 mM), EDTA, (2 mM), HEPES (10 mM), and was at pH=7.5.
cDNA encoding human aquaporin-4 M23 isoform (hAQP4b) was cloned by reverse-transcription polymerase chain reaction (RT-PCR). First-strand cDNA was synthesized from human cerebellum total RNA by using the Advantage RT-for-PCR Kit (CLONTECH). The following oligonucleotide PCR primers were designed based on published hAQP4b sequences (Lu, et al. Proc. Nat. Acad. Sci. USA 1996, 93, 10908): forward 5′-[…]-3′, reverse 5′-[…]-3′. Full-length cRNA was subcloned into pSP35T expression vector for Xenopus oocytes (Amaya, et al. Cell 1991, 66, 257).
Oocytes from an adult, female Xenopus laevis were transferred portion-wise to a Petri dish containing isolation buffer, where the follicular membranes and vitelline were removed manually, thereby yielding denuded oocytes (Sakimura, et al. FEBS Lett. 1990, 272, 73). Denuded stage V-VI oocytes were then returned to fresh MBS medium and allowed to equ ilibrate for a minimum of 2 h at 18° C. prior to cRNA injection. Denuded oocytes unused after 24 h were discarded. An aliquot of hAQP4b cRNA solution (20 μL) was pelleted by centrifugation (15,000 rpm, 14 min, 4° C.), the pellet was washed sequentially with 70% aqueous ethanol, then 100% ethanol (centrifugation between washes at 15,000 rpm, 3 min, 4° C.), air dried, and finally reconstituted in distilled water (10 μL). An aliquot (30 nL) of either the resulting 0.1 μg/μL cRNA solution (3 ng hAQP4b cRNA/oocyte) or distilled water (sham) was injected into each oocyte using a Drummond oocyte injection system. The injected oocytes were then incubated for 48 h at 18° C. in MBS. The medium was changed and non-viable oocytes removed 24 and 48 h post injection.
An oocyte assay procedure was developed as follows: At a minimum of 3 h prior to the assay, oocytes were transferred to a 96 well microplate (Falcon 353077) along with 45 μL of MBS. An aliquot of a 200 μM inhibitor solution (5 μL, 1% aq. DMSO), or blank (5 μL, 1% aq. DMSO) was introduced to the oocyte containing well 2 h before the assay. The final concentration of the incubation medium was 20 μM in inhibitor with 0.1% DMSO. A secondary plate was likewise prepared by diluting an aliquot of the 200 μM inhibitor solution (15 μL, 1% aq. DMSO) or blank (15 μL, 1% aq. DMSO) with distilled water (135 μL). The assay was performed by transferring an aliquot of the secondary plate medium (100 μL) to the corresponding well on the incubation plate. […] The initial image (nominally t=3 s) and subsequent images (60 s intervals) were recorded for up to 4 minutes post dilution.
Images were transferred to a PC and the area of each oocyte was evaluated using NIH Image-J. The cross-sectional area values for each oocyte at time=t were converted to volumes assuming a spherical relationship. The relative volume of each oocyte compared to its initial volume was then determined. Relative oocyte volumes were then averaged for n oocytes along with the standard error at each point.

The next experiment concerns HEK293 cells. The conditions noted are these: literature report, isozyme not demonstrated; cited from earlier work.
The next experiment deals with T2, AQP1 (Homo sapiens, UniProt P29972).
T2 sequence (P29972 1-269): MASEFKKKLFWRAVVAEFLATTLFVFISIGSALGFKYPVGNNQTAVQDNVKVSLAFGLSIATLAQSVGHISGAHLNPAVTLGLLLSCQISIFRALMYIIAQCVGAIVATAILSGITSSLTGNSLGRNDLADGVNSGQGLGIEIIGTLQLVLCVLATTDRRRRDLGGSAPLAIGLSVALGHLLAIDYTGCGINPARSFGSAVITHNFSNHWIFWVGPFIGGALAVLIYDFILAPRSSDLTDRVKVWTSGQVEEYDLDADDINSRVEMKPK
The conditions noted are these: literature report; cited from earlier work.

Another experiment concerns the target AQP4 (Homo sapiens, UniProt P55087). The conditions noted are these: literature report; cited from earlier work.
Setting [3] is: Table 3, from inhibitory data at 0.01≦[X]≦100 μM, read-out: IC50.
[4] abbreviates: figure legends FIGS. 8-12, non-linear least squares fit of dose dependent inhibition, read-out: IC50.

Structures are written as SMILES. Read-outs that look alike come from different tables or passages of the source.

T1 sequence (P55087 23-323): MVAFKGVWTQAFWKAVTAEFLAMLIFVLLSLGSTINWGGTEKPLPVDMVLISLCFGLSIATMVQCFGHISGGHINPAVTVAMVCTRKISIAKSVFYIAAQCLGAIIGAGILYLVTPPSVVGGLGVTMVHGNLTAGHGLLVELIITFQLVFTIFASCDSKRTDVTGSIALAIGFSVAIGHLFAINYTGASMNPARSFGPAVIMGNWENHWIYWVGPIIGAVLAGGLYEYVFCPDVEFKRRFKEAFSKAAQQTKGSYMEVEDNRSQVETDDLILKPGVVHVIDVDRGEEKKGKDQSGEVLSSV
AQP4, sequence (P55087 whole entry): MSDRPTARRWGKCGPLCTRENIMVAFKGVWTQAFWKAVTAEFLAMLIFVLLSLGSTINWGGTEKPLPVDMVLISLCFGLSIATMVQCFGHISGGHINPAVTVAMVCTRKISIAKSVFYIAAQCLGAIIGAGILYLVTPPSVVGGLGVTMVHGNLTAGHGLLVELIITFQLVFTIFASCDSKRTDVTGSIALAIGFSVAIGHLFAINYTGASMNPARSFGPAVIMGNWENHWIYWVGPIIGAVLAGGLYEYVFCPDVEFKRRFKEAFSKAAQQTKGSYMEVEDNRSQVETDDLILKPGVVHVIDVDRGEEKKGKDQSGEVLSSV

The IC50 is the concentration that inhibits the measured activity by half. One may read the inhibition as the drop in the measured response relative to a control, in per cent. As to `CC(=O)Nc1nnc(S(N)(=O)=O)s1` [Compound 1, N-(5-sulfamoyl-1,3,4-thiadiazol-2-yl)acetamide], in experiment [1] (FIG. 7, 0.01, 0.1, 1.0 and 10 μM solutions, n=5), the “dose response dependent inhibition of AQP4 mediated water transport” value was “significant inhibition”. Half-maximal inhibition in experiment [1] (Table 3, from inhibitory data at 0.01≦[X]≦100 μM) (IC50) was put at 0.86 µM. For the same compound, the IAmax in experiment [1] (Table 3) was 86. The inhibition at 20 µM in experiment [2] is 78 ± 3%.
`CC(=O)Nc1ccc(S(N)(=O)=O)cc1` [Compound 3, N-(4-sulfamoylphenyl)acetamide]: in experiment [2], the inhibition at 20 µM was 23 ± 5%.
`O=C1NC(=O)C(c2ccccc2)(c2ccccc2)N1` [Compound 4, 5,5-diphenylimidazolidine-2,4-dione]: the IC50 in experiment [1] (setting [3]) came to 9.8 µM. Also, in experiment [1] (Table 3), the IAmax is reported as 60. Besides, in experiment [2], the inhibition at 20 µM came to 58 ± 4%.
For the compound `NC(=O)N1c2ccccc2CC(=O)c2ccccc21` [Compound 5, 10-oxo-10,11-dihydro-5H-dibenzo [b,f]azepine-5-carboxamide], the inhibition at 20 µM in experiment [2] amounted to 33 ± 4%.
With `NC(=O)N1c2ccccc2[C@H]2O[C@H]2c2ccccc21` [Compound 6, (1aR, 10bS)-1aH-dibenzo[b,f] oxireno[2,3-d]azepine-6(10bH)-carboxamide], the “inhibition of AQP4 mediated water swelling / water transport” value in experiment [2] (FIGS. 1-6, 20 μM inhibitor, hypoosmotic conditions, versus sham and blank oocytes, n=5 minimum) is listed as “did not show a significantly inhibited water transport”. For the same compound, the inhibition at 20 µM in experiment [2] is 40 ± 7%.
For `Nc1nnc(-c2cccc(Cl)c2Cl)c(N)n1` [Compound 7, 6-(2,3-dichlorophenyl)-1,2,4-triazine-3,5-diamine], in experiment [1] (setting [3]), the IC50 was found to be 8.1 µM. Also, the IAmax in experiment [1] (Table 3) is reported as 64. In addition, the inhibition at 20 µM in experiment [2] turned out to be 54 ± 9%.
In the case of `CC1(C)O[C@@H]2[C@@H](CO[C@@]3(COS(N)(=O)=O)OC(C)(C)O[C@@H]23)O1` [Compound 8, ((3aS,5aR,8aR,8bS)-2,2,7,7-tetra-methyltetrahydro-3aH-bis[1,3]dioxolo[4,5-b:4′,5′-d]pyran-3a-yl) methyl sulfamate], the IC50 in experiment [1] (setting [3]) came out at 10.1 µM. For the same compound, in experiment [1] (Table 3), the IAmax was 75. Moreover, the “% Inh (percent inhibition and cumulated error)” value in experiment [2] is 67 ± 6%.
With `NS(=O)(=O)Cc1noc2ccccc12` [Compound 9, benzo[d]isoxazol-3-ylmethane sulfonamide], the inhibition at 20 µM in experiment [2] worked out at 19 ± 5%.
As for `O=C(Nc1nncs1)c1cccnc1` [Compound 10, N-(1,3,4-thiadiazol-2-yl) nicotinamide], the IC50 in experiment [1] (setting [3]) turned out to be 3.1 µM. Also, the IAmax in experiment [1] (Table 3) is listed as 73. For the same compound, the inhibition at 20 µM in experiment [2] was 67 ± 6%.
On the same counts, the results for `O=C(Nc1nccs1)c1cccnc1` [Compound 11, N-(thiazol-2-yl)nicotinamide] are 3.4 µM, 23 and 21 ± 7%.
As for `O=S(=O)(Cc1ccccc1)Nc1nncs1` [Compound 12, 1-phenyl-N-(1,3,4-thiadiazol-2-yl) methanesulfonamide], the “% Inh (percent inhibition and cumulated error)” value in experiment [2] came out at 45 ± 8%.
For the compound `NS(=O)(=O)c1ccc(Cl)s1` [Compound 13, 2-chlorothiophene-5-sulfonamide], in experiment [2], the inhibition at 20 µM is 18 ± 9%.
As for `NC(=O)c1nc[nH]c1C(N)=O` [Compound 14, 1H-imidazole-4,5-dicarboxamide], the inhibition at 20 µM in experiment [2] was found to be 23 ± 8%.
Regarding `CN(C)CCc1c[nH]c2ccc(Cn3cncn3)cc12` [Compound 15, 2-(5-((1H-1,2,4-triazol-1-yl)methyl)-1H-indol-3-yl)-N,N-dimethylethanamine], the IC50 in experiment [1] (setting [3]) was 2.9 µM. The IAmax in experiment [1] (Table 3) is given as 54. The inhibition at 20 µM in experiment [2] was determined as 51 ± 5%.
As for `COC(=O)Nc1nc2ccc(C(=O)c3cccs3)cc2[nH]1` [Nocodazole], in the experiment on HEK293 cells, the “inhibition of AQP4 mediated hypoosmotic expansion” value is “inhibiting the AQP4 mediated hypoosmotic expansion of HEK293 cells”.
`CC(=O)Nc1nnc(S(N)(=O)=O)s1` [Table 3 entry 1, N-(5-sulfamoyl-1,3,4-thiadiazol-2-yl)acetamide] had an IC50 in experiment [2] of 860 nM.
As for `O=C1NC(=O)C(c2ccccc2)(c2ccccc2)N1` [Table 3 entry 4, 5,5-diphenylimidazolidine-2,4-dione], the IC50 in experiment [1] (setting [4]) was found to be 9.8 µM.
For the compound `CC1(C)O[C@@H]2[C@@H](CO[C@@]3(COS(N)(=O)=O)OC(C)(C)O[C@@H]23)O1` [Table 3 entry 8, ((3aS,5aR,8aR,8bS)-2,2,7,7-tetra-methyltetrahydro-3aH-bis[1,3]dioxolo[4,5-b:4′,5′-d]pyran-3a-yl) methyl sulfamate], the IC50 in experiment [1] (setting [4]) is 10.1 µM.
The same measure, in the same setting: next, `O=C(Nc1nncs1)c1cccnc1` [Table 3 entry 10, N-(1,3,4-thiadiazol-2-yl) nicotinamide]: 3.1 µM; `CN(C)CCc1c[nH]c2ccc(Cn3cncn3)cc12` [Table 3 entry 15, 2-(5-((1H-1,2,4-triazol-1-yl)methyl)-1H-indol-3-yl)-N,N-dimethylethanamine]: 2.9 µM.
For `CC(=O)Nc1nnc(S(N)(=O)=O)s1` [acetazolamide], the “inhibition of AQP1” value on AQP1 is “inhibited in a dose dependent manner”.
`CC[N+](CC)(CC)CC.[Cl-]` [tetraethyl ammonium chloride]: the “inhibition of AQP4” value at AQP4 is “shown to inhibit AQP4”.
